Data on 22 compounds can be found in US20260258035A1, “FIVE-MEMBERED AND SIX-MEMBERED NITROGEN-CONTAINING COMPOUND, AND INTERMEDIATE, PREPARATION METHOD AND USE THEREOF” (HANGZHOU SYNRX THERAPEUTICS BIOMEDICAL TECHNOLOGY CO., LTD., priority 2022, published 2026).

Read-outs that look alike come from different tables or passages of the source.

Experiment [1] deals with PARG (Homo sapiens, UniProt Q86W56). The experiment is described as follows: Biochemical assay (PARG, TFMU-ADPr substrate).
The subject of experiment [2] is HCC1806. The experiment is described as follows: Cell viability assay (CellTiter-Glo). It is filed as cell-based, Human. Conditions: HCC1806, 7 days, CellTiter-Glo, read-out: IC50 (nM) in cell viability assay. (In general: Cellular ATP, detected with luciferase, serves as a proxy for viable cell number.)
Setting [3] is: 4 nM PARG, 66.2 uM TFMU-ADPr, 3 min at room temperature.

PARG, sequence (Q86W56 whole entry): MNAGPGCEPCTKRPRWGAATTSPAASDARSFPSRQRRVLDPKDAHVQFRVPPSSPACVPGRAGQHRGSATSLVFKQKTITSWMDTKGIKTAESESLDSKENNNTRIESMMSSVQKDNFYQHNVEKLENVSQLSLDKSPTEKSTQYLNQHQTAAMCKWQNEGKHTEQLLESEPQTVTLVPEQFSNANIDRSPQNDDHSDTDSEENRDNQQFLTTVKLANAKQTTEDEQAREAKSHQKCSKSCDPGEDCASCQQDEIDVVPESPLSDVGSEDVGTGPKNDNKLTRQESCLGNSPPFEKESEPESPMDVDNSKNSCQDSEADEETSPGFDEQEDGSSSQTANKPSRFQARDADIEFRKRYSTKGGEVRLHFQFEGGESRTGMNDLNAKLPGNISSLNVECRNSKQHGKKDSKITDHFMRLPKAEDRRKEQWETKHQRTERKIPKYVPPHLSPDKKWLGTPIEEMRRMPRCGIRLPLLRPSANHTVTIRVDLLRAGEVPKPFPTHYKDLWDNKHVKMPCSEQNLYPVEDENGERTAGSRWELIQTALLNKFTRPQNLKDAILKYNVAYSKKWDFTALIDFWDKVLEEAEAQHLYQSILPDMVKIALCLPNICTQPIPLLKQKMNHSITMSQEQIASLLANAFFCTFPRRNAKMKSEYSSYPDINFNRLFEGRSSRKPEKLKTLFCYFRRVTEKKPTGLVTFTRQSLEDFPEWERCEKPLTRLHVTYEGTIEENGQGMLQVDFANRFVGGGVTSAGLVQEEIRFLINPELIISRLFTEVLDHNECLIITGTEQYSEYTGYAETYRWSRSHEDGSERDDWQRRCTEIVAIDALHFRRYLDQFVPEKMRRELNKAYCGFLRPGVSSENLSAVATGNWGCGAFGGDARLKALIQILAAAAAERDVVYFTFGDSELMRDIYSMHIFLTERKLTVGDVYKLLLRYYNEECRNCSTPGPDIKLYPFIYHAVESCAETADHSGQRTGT

With `C[C@H]1CN(c2cc(S(=O)(=O)NC3(C)COC3)cn3c(-c4nnc(C(F)(F)F)s4)ncc23)C[C@H](C)O1` [Example 355, 8-((2S,6S)-2,6-dimethylmorpholino)-N-(3-methyloxetan-3-yl)-3-(5-(trifluoromethyl)-1,3,4-thiadiazol-2-yl)imidazo[1,5-a]pyridine-6-sulfonamide], the IC50 in experiment [1] (PARG, TFMU-ADPr substrate) was 0.5 nM; in experiment [2] (Homo sapiens, HCC1806, 168 h), 85 nM.

For `COCC1CN(c2cc(S(=O)(=O)NC3(CF)COC3)cn3c(-c4nnc(C(F)F)s4)ncc23)CCN1` (stereo not drawn) [Example 356, 3-(5-(difluoromethyl)-1,3,4-thiadiazol-2-yl)-N-(3-(fluoromethyl)oxetan-3-yl)-8-(3-(methoxymethyl)piperazin-1-yl)imidazo[1,5-a]pyridine-6-sulfonamide], the IC50 in experiment [1] (PARG, TFMU-ADPr substrate) turned out to be 6.31 nM; in experiment [2] (Homo sapiens, HCC1806, 168 h), 305 nM.

Take `COCC1CN(c2cc(S(=O)(=O)NC3(C)COC3)cn3c(-c4nnc(C(F)F)s4)ncc23)CCN1` (stereo not drawn) [Example 357, 3-(5-(difluoromethyl)-1,3,4-thiadiazol-2-yl)-8-(3-(methoxymethyl)piperazin-1-yl)-N-(3-methyloxetan-3-yl)imidazo[1,5-a]pyridine-6-sulfonamide]: the IC50 worked out at 8.31 nM in experiment [1] (PARG, TFMU-ADPr substrate) and 208 nM in experiment [2] (Homo sapiens, HCC1806, 168 h).

Consider `COCC1CN(c2cc(S(=O)(=O)NC3(C)COC3)cn3c(-c4nnc(C(F)(F)F)s4)ncc23)CCN1` (stereo not drawn) [Example 358, 8-(3-(methoxymethyl)piperazin-1-yl)-N-(3-methyloxetan-3-yl)-3-(5-(trifluoromethyl)-1,3,4-thiadiazol-2-yl)imidazo[1,5-a]pyridine-6-sulfonamide], for which the IC50 came to 15.8 nM in experiment [1] (PARG, TFMU-ADPr substrate) and 261 nM in experiment [2] (Homo sapiens, HCC1806, 168 h).

Regarding `C[C@H]1CN(c2cc(S(=O)(=O)NC3(CF)COC3)cn3c(-c4nnc(C(F)F)s4)ncc23)C[C@H](C)N1` [Example 359, 3-(5-(difluoromethyl)-1,3,4-thiadiazol-2-yl)-8-((3S,5S)-3,5-dimethylpiperazin-1-yl)-N-(3-(fluoromethyl)oxetan-3-yl)imidazo[1,5-a]pyridine-6-sulfonamide], the IC50 amounted to 1.44 nM in experiment [1] (PARG, TFMU-ADPr substrate) and 47 nM in experiment [2] (Homo sapiens, HCC1806, 168 h).

Regarding `COCC1CN(c2cc(S(=O)(=O)NC3(C)COC3)cn3c(-c4nnc(C(F)(F)F)s4)cnc23)CCN1` (stereo not drawn) [Example 360, 8-(3-(methoxymethyl)piperazin-1-yl)-N-(3-methyloxetan-3-yl)-3-(5-(trifluoromethyl)-1,3,4-thiadiazol-2-yl)imidazo[1,2-a]pyridine-6-sulfonamide], the IC50 worked out at 36.3 nM in experiment [1] (PARG, TFMU-ADPr substrate) and 637 nM in experiment [2] (Homo sapiens, HCC1806, 168 h).

On to `CC(C)OCC1CN(c2cc(S(=O)(=O)NC3(C)COC3)cn3c(-c4nnc(C(F)F)s4)ncc23)CCN1` (stereo not drawn) [Example 361, 3-(5-(difluoromethyl)-1,3,4-thiadiazol-2-yl)-8-(3-(isopropoxymethyl)piperazin-1-yl)-N-(3-methyloxetan-3-yl)imidazo[1,5-a]pyridine-6-sulfonamide], for which the IC50 was found to be 18.2 nM in experiment [1] (PARG, TFMU-ADPr substrate) and 642 nM in experiment [2] (Homo sapiens, HCC1806, 168 h).

On to `CCNC(=O)N1CCN(c2cc(S(=O)(=O)NC3(C)COC3)cn3c(-c4nnc(C(F)(F)F)s4)ncc23)CC1` [Example 362, N-ethyl-4-(6-(N-(3-methyloxetan-3-yl)sulfamoyl)-3-(5-(trifluoromethyl)-1,3,4-thiadiazol-2-yl)imidazo[1,5-a]pyridin-8-yl)piperazine-1-carboxamide], for which the IC50 in experiment [1] (PARG, TFMU-ADPr substrate) was 6.31 nM; in experiment [2] (Homo sapiens, HCC1806, 168 h), 158 nM.

For the compound `CC1(NS(=O)(=O)c2cc(N3CCN4C(=O)COCC4C3)c3cnc(-c4nnc(C(F)(F)F)s4)n3c2)COC1` (stereo not drawn) [Example 363, N-(3-methyloxetan-3-yl)-8-(4-oxohexahydropyrazino[2,1-c][1,4]oxazin-8(1H)-yl)-3-(5-(trifluoromethyl)-1,3,4-thiadiazol-2-yl)imidazo[1,5-a]pyridine-6-sulfonamide], the IC50 in experiment [1] (PARG, TFMU-ADPr substrate) turned out to be 1.71 nM; in experiment [2] (Homo sapiens, HCC1806, 168 h), 63 nM.

In the case of `CC1(NS(=O)(=O)c2cc(N3CCN(C4CC4)CC3)c3cnc(-c4nnc(C(F)F)s4)n3c2)COC1` [Example 364, 8-(4-cyclopropylpiperazin-1-yl)-3-(5-(difluoromethyl)-1,3,4-thiadiazol-2-yl)-N-(3-methyloxetan-3-yl)imidazo[1,5-a]pyridine-6-sulfonamide], the IC50 in experiment [1] (PARG, TFMU-ADPr substrate) came out at 41.4 nM; in experiment [2] (Homo sapiens, HCC1806, 168 h), 791 nM.

Turning to `CC1(NS(=O)(=O)c2cc(N3CCNC4(CC4)C3)c3cnc(-c4nnc(C(F)F)s4)n3c2)COC1` [Example 365, 3-(5-(difluoromethyl)-1,3,4-thiadiazol-2-yl)-N-(3-methyloxetan-3-yl)-8-(4,7-diazaspiro[2.5]octan-7-yl)imidazo[1,5-a]pyridine-6-sulfonamide], the IC50 was 8.58 nM in experiment [1] (PARG, TFMU-ADPr substrate) and 1070 nM in experiment [2] (Homo sapiens, HCC1806, 168 h).

On to `Cn1nccc1C1C=C(c2cc(S(=O)(=O)NC3(C#N)CC3)cn3c(-c4nnc(C(F)F)s4)nnc23)CC1` (stereo not drawn) [Example 367, N-(1-cyanocyclopropyl)-3-(5-(difluoromethyl)-1,3,4-thiadiazol-2-yl)-8-(3-(1-methyl-1H-pyrazol-5-yl)cyclopent-1-en-1-yl)-[1,2,4]triazolo[4,3-a]pyridine-6-sulfonamide], for which the IC50 in experiment [1] (setting [3]) is less than 100 nM; in experiment [1] (PARG, TFMU-ADPr substrate) it was 32.8 nM; in experiment [2] it was 6780 nM; in experiment [2] (Homo sapiens, HCC1806, 168 h) it was 5000 to 30000 nM.

With `CC(C)C(=O)N1CC=C(c2cc(S(=O)(=O)NC3(C#N)CC3)cn3c(-c4nnc(C(F)(F)F)s4)ncc23)CC1` [Example 368, N-(1-cyanocyclopropyl)-8-(1-isobutyryl-1,2,3,6-tetrahydropyridin-4-yl)-3-(5-(trifluoromethyl)-1,3,4-thiadiazol-2-yl)imidazo[1,5-a]pyridine-6-sulfonamide], the concentration for half-maximal inhibition (IC50) in experiment [1] (PARG, TFMU-ADPr substrate) was 13.8 nM; in experiment [2] (Homo sapiens, HCC1806, 168 h) it was 900 nM.

`N#CC1(NS(=O)(=O)c2cc(C3=CCN(S(=O)(=O)C4CC4)CC3)c3cnc(-c4nnc(C(F)(F)F)s4)n3c2)CC1` [Example 369, N-(1-cyanocyclopropyl)-8-(1-(cyclopropylsulfonyl)-1,2,3,6-tetrahydropyridin-4-yl)-3-(5-(trifluoromethyl)-1,3,4-thiadiazol-2-yl)imidazo[1,5-a]pyridine-6-sulfonamide]: the 50% inhibitory concentration (IC50) turned out to be 1.91 nM in experiment [1] (PARG, TFMU-ADPr substrate) and 505 nM in experiment [2] (Homo sapiens, HCC1806, 168 h).

With `CC(=O)N1CC=C(c2cc(S(=O)(=O)NC3(C#N)CC3)cn3c(-c4nnc(C(F)(F)F)s4)ncc23)CC1` [Example 370, 8-(1-acetyl-1,2,3,6-tetrahydropyridin-4-yl)-N-(1-cyanocyclopropyl)-3-(5-(trifluoromethyl)-1,3,4-thiadiazol-2-yl)imidazo[1,5-a]pyridine-6-sulfonamide], the IC50 in experiment [1] (PARG, TFMU-ADPr substrate) came to 41.7 nM; in experiment [2] (Homo sapiens, HCC1806, 168 h), 240 nM.

For the compound `N#CC1(NS(=O)(=O)c2cc(C3=CCN(C(=O)C4(O)CC4)CC3)c3cnc(-c4nnc(C(F)(F)F)s4)n3c2)CC1` [Example 371, N-(1-cyanocyclopropyl)-8-(1-(1-hydroxycyclopropane-1-carbonyl)-1,2,3,6-tetrahydropyridin-4-yl)-3-(5-(trifluoromethyl)-1,3,4-thiadiazol-2-yl)imidazo[1,5-a]pyridine-6-sulfonamide], the IC50 in experiment [1] (PARG, TFMU-ADPr substrate) came out at 4.57 nM; in experiment [2] (Homo sapiens, HCC1806, 168 h), 360 nM.

On to `N#CC1(NS(=O)(=O)c2cc(C3CCN(C(=O)C4(O)CC4)CC3)c3cnc(-c4nnc(C(F)(F)F)s4)n3c2)CC1` [Example 372, N-(1-cyanocyclopropyl)-8-(1-(1-hydroxycyclopropane-1-carbonyl)piperidin-4-yl)-3-(5-(trifluoromethyl)-1,3,4-thiadiazol-2-yl)imidazo[1,5-a]pyridine-6-sulfonamide], for which the IC50 in experiment [1] (PARG, TFMU-ADPr substrate) amounted to 3.8 nM; in experiment [2] (Homo sapiens, HCC1806, 168 h) it was 580 nM.

Turning to `COC1(C(=O)N2CCC(c3cc(S(=O)(=O)NC4(C#N)CC4)cn4c(-c5nnc(C(F)(F)F)s5)ncc34)CC2)CC1` [Example 373, N-(1-cyanocyclopropyl)-8-(1-(1-methoxycyclopropane-1-carbonyl)piperidin-4-yl)-3-(5-(trifluoromethyl)-1,3,4-thiadiazol-2-yl)imidazo[1,5-a]pyridine-6-sulfonamide], the IC50 was 3.31 nM in experiment [1] (PARG, TFMU-ADPr substrate) and 21.1 nM in experiment [2] (Homo sapiens, HCC1806, 168 h).

As for `CC1(NS(=O)(=O)c2cc(C3=CCN(S(C)(=O)=O)CC3)c3cnc(-c4nnc(C(F)(F)F)s4)n3c2)CC1` [Example 377, N-(1-methylcyclopropyl)-8-(1-(methylsulfonyl)-1,2,3,6-tetrahydropyridin-4-yl)-3-(5-(trifluoromethyl)-1,3,4-thiadiazol-2-yl)imidazo[1,5-a]pyridine-6-sulfonamide], the IC50 in experiment [1] (PARG, TFMU-ADPr substrate) was found to be 1.41 nM; in experiment [2] (Homo sapiens, HCC1806, 168 h), 60 nM.

Take `Cn1nccc1C1CCC(c2cc(S(=O)(=O)NC3(C#N)CC3)cn3c(-c4nnc(C(F)F)s4)nnc23)C1` (stereo not drawn) [Example 378, N-(1-cyanocyclopropyl)-3-(5-(difluoromethyl)-1,3,4-thiadiazol-2-yl)-8-(3-(1-methyl-1H-pyrazol-5-yl)cyclopentyl)-[1,2,4]triazolo[4,3-a]pyridine-6-sulfonamide]: the IC50 in experiment [1] (setting [3]) was less than 100 nM; in experiment [1] (PARG, TFMU-ADPr substrate), 27.7 nM; in experiment [2] it was 6000 nM; in experiment [2] (Homo sapiens, HCC1806, 168 h) it was 5000 to 30000 nM.

As to `COC1(C(=O)N2CC=C(c3cc(S(=O)(=O)NC4(C#N)CC4)cn4c(-c5nnc(C(F)(F)F)s5)ncc34)CC2)CC1` [Example 379, N-(1-cyanocyclopropyl)-8-(1-(1-methoxycyclopropane-1-carbonyl)-1,2,3,6-tetrahydropyridin-4-yl)-3-(5-(trifluoromethyl)-1,3,4-thiadiazol-2-yl)imidazo[1,5-a]pyridine-6-sulfonamide], the IC50 in experiment [1] (PARG, TFMU-ADPr substrate) turned out to be 2.09 nM; in experiment [2] (Homo sapiens, HCC1806, 168 h), 20 nM.

With `N#CC1(NS(=O)(=O)c2cc(N3CCN(C(=O)C4(OCC(=O)O)CC4)CC3)c3cnc(-c4nnc(C(F)F)s4)n3c2)CC1` [Example 381, 2-(1-(4-(6-(N-(1-cyanocyclopropyl)sulfamoyl)-3-(5-(difluoromethyl)-1,3,4-thiadiazol-2-yl)imidazo[1,5-a]pyridin-8-yl)piperazine-1-carbonyl)cyclopropoxy)acetic acid], the IC50 in experiment [1] (PARG, TFMU-ADPr substrate) came out at 27.1 nM; in experiment [2] (Homo sapiens, HCC1806, 168 h), 3630 nM.

In general, IC50 refers to the midpoint of a concentration-inhibition curve.
